Data as given in patent publication US20250188480A1, “AGENT FOR ENHANCING PRODUCTION OF VIRAL VECTOR AND METHOD FOR PRODUCING VIRAL VECTOR” (priority 2022, published 2025).
“Also recorded” adds a separate entry of the source.

Tests used:
[1] = system: HEK293 cells producing rAAV1; assay: Evaluation of AAV vector-producing ability by treatment with chemical substance (virus titer by qPCR); format: cell-based, human; settings: for effects of enhancing the amount of production of AAV vectors (v.g.): HEK293 cells, serum-free E-MEM supplemented with the substance at various concentrations, culture for 3 days, vs untreated control
Method: The cells of the immortalized cell line derived from the human embryonic kidney (HEK293 cells) purchased from ATCC were cultured in E-MEM supplemented with 10% fetal bovine serum, penicillin, and streptomycin at 37° C. in the presence of 5% CO2.
The recombinant adeno-associated virus 1 (rAAV1) was prepared with the use of 3 types of plasmids: pAAV-ZsGreen1 (TaKaRa Bio), pAAV2/1, and pHelper. A mixture of 3 types of plasmids for preparation of rAAV1 was adjusted to bring the mixing ratio of DNA to Polyethylenimine Max (PEI: Polysciences) (DNA: PEI) to 1:2 in OPTI-MEM, and the reaction was allowed to proceed at room temperature for 15 minutes. After 90% or higher confluent HEK293 cells were transfected with E-MEM supplemented with 10% FBS for 6 hours, culture was performed in serum-free E-MEM to prepare the AAV type 1 vector.
Genome DNA of rAAV1 was extracted to measure the virus titer. Specifically, the culture supernatant was collected and treated with benzonase at 37° C. for 1 hour, and the viral genome DNA was extracted and purified using the DNeasy Blood & Tissue kit (QIAGEN). The virus titer was measured by real-time PCR in triplicate. qPCR was performed using primers targeting Zs-Green 1.
The virus titers achieved with the use of the chemical substances were compared with the virus titer of the control cells treated with serum-free E-MEM not supplemented with chemical substances.

[2] = system: HEK293 cells; settings: treated for 5 days; HEK293 cells transduced at 1×10^5 v.g./cell, green fluorescence 3 days thereafter, vs vector without treatment

| Structure (SMILES) | effects of enhancing the amount of production of AAV vectors (v.g.) [1] | amount of production of AAV vectors (v.g.) with the elapse of time ([1]; time after initiation of vector production, observed for 4 to 7 days) | infectious ability of the rAAV vector produced by treatment [2] |
| --- | --- | --- | --- |
| [NH3+][Pt-2]1([NH3+])[O]C(=O)C2(CCC2)C(=O)[O]1 [Carboplatin] | has effects of enhancing the amount of production of AAV vectors; also recorded: effects of enhancing production of rAAV vectors can be achieved | increasing with the elapse of time | retains the infectious ability equivalent to that of the AAV vector prepared without treatment |
| N.N.[Cl][Pt][Cl] [Cisplatin] | has effects of enhancing the amount of production of AAV vectors; also recorded: effects of enhancing production of rAAV vectors can be achieved | – | – |
| [NH2][Pt]1([NH2])[O]CC(=O)[O]1 [Nedaplatin] | has effects of enhancing the amount of production of AAV vectors; also recorded: effects of enhancing production of rAAV vectors can be achieved | – | – |
